PMC6152180, “Design, Synthesis and Evaluation of Hesperetin Derivatives as Potential Multifunctional Anti-Alzheimer Agents” (Molecules : A Journal of Synthetic Chemistry and Natural …, 2017)
Like-named read-outs stand apart in the source and are kept apart here.

Legend:
in vitro = conditions: human
Procedure: Thus, we used the methylthiazolyl tetrazolium (MTT) method [30] to perform a neurocyte (SH-SY5Y) toxicity test in vitro.
The SH-SY5Y cell line was seeded on 96-well plates at a density of 10^4 cells/well. […] Subsequently, 10 μL of 5 mg/mL MTT solution was added to each well and further incubated for 4 h at 37 °C. The solution was carefully removed, and each well was treated with DMSO (200 μL for each well). The optical density of the wells was then read on the microplate reader at 570 nm. All the tested compounds were performed in triplicate.

AChE = target: T1, AChE (Electrophorus electricus, UniProt O42275); experiment: biochemical; conditions: for Selective Index: Selectivity Index = IC50 (BuChE)/IC50 (AChE)
T1 construct: purchased Sigma-Aldrich C3389-2KU
Procedure: (§1) Acetylcholinesterase (AChE, E.C. 3.1.1.7, obtained from electric eel) was purchased from Sigma-Aldrich (St. Louis, MO, USA, product code: C3389-2KU). Butyrylcholinesterase (BuChE, E.C. 3.1.1.8, obtained from equine serum) was purchased from Aladdin (Shanghai, China, product code: B128570-2KU). […] The compounds were dissolved in a minimum volume of DMSO (1%) and then diluted in 0.1 M KH2PO4/K2HPO4 buffer (pH 8.0) to provide a final concentration range.
(§2) Enzyme solutions were prepared to give 2.0 units/ mL in 2 mL aliquots. The assay medium contained phosphate buffer, pH 8.0 (1 mL), 50 μL of 0.01 M DTNB, 10 μL of enzyme, and 50 μL of 0.01 M substrate (ATC). The substrate was added to the assay medium containing enzyme, buffer, and DTNB with inhibitor after 15 min of incubation time. […] In vitro BuChE assay used the similar method described above [31]. Each concentration was assayed in triplicate.

Aβ (1–42) = Aβ (1–42) (Homo sapiens, UniProt P05067); experiment: Inhibition of self-mediated Aβ (1–42) aggregation (thioflavin T fluorescence assay); conditions: read-out: Aβ (1–42) aggregation inhibition rate
Procedure: A thioflavin T based fluorometric assay was performed to investigate the self-mediated Aβ (1–42) aggregation [33]. Aβ (1–42) peptide (Sigma-Aldrich) was dissolved in phosphate buffer (0.01 M, pH 7.40) to obtain a 20 μM solution. Compounds were firstly dissolved in DMSO to obtain a 10 mM solution. Inhibitors and the final concentration of Aβ (1–42) were 20 μM. After incubated in 37 °C for 48 h, thioflavin-T (5 μM in 50 mM glycine-NaOH buffer, pH 8.00) was added. […] Each inhibitor was run in triplicate. The fluorescence intensities were recorded, and the percent inhibition on aggregation was calculated by the following expression: (1 − IFi/IFc) × 100% in which IFi and IFc were the fluorescence intensities obtained for absorbance in the presence and absence of inhibitors, respectively, after subtracting the fluorescence of respective blanks.

BuChE = target: T2, BuChE (Equus caballus, UniProt P81908); experiment: biochemical
T2 construct: purchased Aladdin B128570-2KU; host or cells: equine serum
Procedure: as §1, §2

[1] = Oxygen radical absorbance capacity-fluorescein (ORAC-FL) assay; conditions: Trolox equivalents, Trolox = 1
Procedure: Vitamin E analogue Trolox was used as the standard, and the results were expressed as Trolox equivalents.
The anti-oxidation activity was tested by using the oxygen radical absorbance capacity-fluorescein (ORAC-FL) assay [25, 32]. All the ORAC-assays measure antioxidant scavenging activity against peroxyl radical induced by 2,2′-azobis (2-amidinopropane) dihydrochloride (AAPH) at 37 °C.
The reaction was conducted with 75 mM phosphate buffer (pH 7.4) and the final reaction mixture was 200 μL. Fluorescein (120 μL, 300 nM final concentration) and antioxidant (20 μL) were placed in the wells of a black 96-well plate, and the mixture was incubated for 15 min at 37 °C. Then AAPH solution (60 μL, 12 mM final concentration) was added rapidly. […] 6-hydroxy-2,5,7,8-tetramethylchroman-2-carboxylic acid (Trolox) was used as a standard (1–5 μM, final concentration). A blank (FL + AAPH) using phosphate buffer instead of antioxidant and Trolox calibration were carried out in each assay. The samples were measured at different concentrations (1–5 μM), and at least three independent assays were performed for each sample. Fluorescence measurements were normalized based on the curve of the blank (without antioxidant). Antioxidant curves (fluorescence versus time) were normalized to the curve of the blank in the same assay, and then the area under the fluorescence decay curve (AUC) was calculated. The net AUC of a sample was obtained by subtracting the AUC from the blank. ORAC-FL values were expressed as Trolox equivalents by using the standard curve calculated for each sample, where the ORAC-FL value of Trolox was taken as one, indicating the antioxidant potency of the test compounds.

[2] = AChE from electric eel, means ± SEM of three experiments, read-out: AchE Inhibition, (IC50)
[3] = BuChE from equine serum, means ± SEM of three experiments, read-out: BuChE Inhibition, (IC50)

T2 sequence (P81908 whole entry): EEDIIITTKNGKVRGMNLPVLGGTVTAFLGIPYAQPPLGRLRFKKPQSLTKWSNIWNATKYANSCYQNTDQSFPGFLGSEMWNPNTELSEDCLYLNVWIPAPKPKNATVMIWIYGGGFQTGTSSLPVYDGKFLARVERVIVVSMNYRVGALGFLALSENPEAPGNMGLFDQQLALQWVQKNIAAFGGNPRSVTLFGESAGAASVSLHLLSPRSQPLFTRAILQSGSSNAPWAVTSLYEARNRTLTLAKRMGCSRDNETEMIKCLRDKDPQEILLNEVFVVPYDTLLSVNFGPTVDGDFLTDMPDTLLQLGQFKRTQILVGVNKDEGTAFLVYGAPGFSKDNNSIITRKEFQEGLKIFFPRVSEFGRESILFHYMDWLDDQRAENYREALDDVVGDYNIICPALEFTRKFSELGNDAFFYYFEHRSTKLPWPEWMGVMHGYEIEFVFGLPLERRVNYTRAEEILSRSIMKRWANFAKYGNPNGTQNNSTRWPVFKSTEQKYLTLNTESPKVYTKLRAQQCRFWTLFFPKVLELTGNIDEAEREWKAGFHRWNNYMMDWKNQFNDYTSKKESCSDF
T1 sequence (O42275 24-633): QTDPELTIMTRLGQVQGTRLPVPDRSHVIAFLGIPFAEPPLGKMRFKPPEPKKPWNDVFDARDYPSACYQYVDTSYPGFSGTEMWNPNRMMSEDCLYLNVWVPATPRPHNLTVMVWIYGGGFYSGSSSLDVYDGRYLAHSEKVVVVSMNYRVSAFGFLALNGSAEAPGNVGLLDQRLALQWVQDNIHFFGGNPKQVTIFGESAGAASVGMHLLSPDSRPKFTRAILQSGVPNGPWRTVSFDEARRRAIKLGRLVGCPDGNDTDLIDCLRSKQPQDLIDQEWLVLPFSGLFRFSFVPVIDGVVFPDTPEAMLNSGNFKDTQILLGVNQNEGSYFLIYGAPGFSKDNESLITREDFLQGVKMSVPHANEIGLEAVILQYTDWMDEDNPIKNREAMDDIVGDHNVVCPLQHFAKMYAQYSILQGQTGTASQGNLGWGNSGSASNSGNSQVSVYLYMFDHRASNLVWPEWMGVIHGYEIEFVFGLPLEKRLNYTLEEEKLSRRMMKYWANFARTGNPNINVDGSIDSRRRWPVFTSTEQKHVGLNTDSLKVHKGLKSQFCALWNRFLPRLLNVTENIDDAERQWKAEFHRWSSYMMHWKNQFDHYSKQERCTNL
Chain of Aβ (1–42) (P05067 672-713): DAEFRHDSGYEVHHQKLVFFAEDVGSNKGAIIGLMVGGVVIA

SMILES | viability at 48 h, 1 µM (in vitro) | viability at 48 h, 10 µM (in vitro) | viability at 48 h, 50 µM (in vitro) | viability at 48 h, 100 µM (in vitro) | IC50 (AChE; [2]) | Selective Index (AChE) | inhibition at 20 µM (Aβ (1–42)) | IC50 (BuChE; [3]) | ORAC [1] | IC50 (AChE) | IC50 (BuChE)
COc1ccc(C2CC(=O)c3c(O)cc(OCC(=O)NCc4ccccc4)cc3O2)cc1O (centres unmarked) [Compound 4a, N-Benzyl-2-[5-hydroxy-2-(3-hydroxy-4-methoxyphenyl)-4-oxochroman-7-yloxy]-acetamide] | 98.2 ± 8.02% | 91.6 ± 5.67% | 81.4 ± 5.23% | 63.2 ± 4.23% | 0.0255 ± 0.00132 µM | 133 | 73.2% | 3.4 ± 0.056 µM |  |  | 
COc1ccc(C2CC(=O)c3c(O)cc(OCC(=O)NCc4ccc(Cl)cc4)cc3O2)cc1O (centres unmarked) [Compound 4b, N-(4-Chlorobenzyl)-2-[5-hydroxy-2-(3-hydroxy-4-methoxyphenyl)-4-oxochroman-7-yloxy]-acetamide] | 103 ± 4.56% | 95.9 ± 3.98% | 83.7 ± 4.12% | 65.4 ± 5.33% | 0.0136 ± 0.00078 µM | 258 |  | 3.5 ± 0.066 µM | 2.7 μM of Trolox equivalent/μMof tested compound |  | 
COc1ccc(C2CC(=O)c3c(O)cc(OCC(=O)NCc4ccc(F)cc4)cc3O2)cc1O (centres unmarked) [Compound 4c, N-(4-Fluorobenzyl)-2-[5-hydroxy-2-(3-hydroxy-4-methoxyphenyl)-4-oxochroman-7-yloxy]-acetamide] | 98.5 ± 4.98% | 97.5 ± 3.76% | 83.8 ± 2.32% | 58.8 ± 3.97% | 0.0124 ± 0.00081 µM | 167 |  | 2.08 ± 0.076 µM | 2.9 μM of Trolox equivalent/μMof tested compound |  | 
COc1ccc(C2CC(=O)c3c(O)cc(OCC(=O)NCc4ccc(Br)cc4)cc3O2)cc1O (centres unmarked) [Compound 4d, N-(4-Bromobenzyl)-2-[5-hydroxy-2-(3-hydroxy-4-methoxyphenyl)-4-oxochroman-7-yloxy]-acetamide] | 99.9 ± 5.76% | 99.5 ± 6.23% | 86.2 ± 5.14% | 70 ± 4.78% | 0.0157 ± 0.00095 µM | 136 |  | 2.13 ± 0.064 µM | 2.6 μM of Trolox equivalent/μMof tested compound |  | 
COc1ccc(CNC(=O)COc2cc(O)c3c(c2)OC(c2ccc(OC)c(O)c2)CC3=O)cc1 (centres unmarked) [Compound 4e, 2-[5-Hydroxy-2-(3-hydroxy-4-methoxyphenyl)-4-oxochroman-7-yloxy]-N-(4-methoxy-benzyl)acetamide] | 105 ± 3.87% | 98.3 ± 5.27% | 87.1 ± 6.37% | 66.5 ± 4.95% | 0.0179 µM | 179 |  | 3.21 ± 0.092 µM | 2.8 μM of Trolox equivalent/μMof tested compound |  | 
COc1ccc(C2CC(=O)c3c(O)cc(OCC(=O)NCc4ccccc4Cl)cc3O2)cc1O (centres unmarked) [Compound 4g, N-(2-Chlorobenzyl)-2-[5-hydroxy-2-(3-hydroxy-4-methoxyphenyl)-4-oxochroman-7-yloxy]acetamide] | 97.8 ± 6.83% | 95.7 ± 5.67% | 79.3 ± 4.33% | 70.8 ± 5.32% | 0.014 ± 0.00095 µM | 116 |  | 1.63 ± 0.078 µM |  |  | 
COc1ccc(C2CC(=O)c3c(O)cc(OCC(=O)NCc4ccccc4F)cc3O2)cc1O (centres unmarked) [Compound 4h, N-(2-Fluorobenzyl)-2-[5-hydroxy-2-(3-hydroxy-4-methoxyphenyl)-4-oxochroman-7-yloxy]-acetamide] | 100 ± 6.52% | 98.8 ± 5.38% | 75.8 ± 3.83% | 60.6 ± 4.27% | 0.0152 ± 0.00203 µM | 184 |  | 2.8 ± 0.039 µM | 2.5 μM of Trolox equivalent/μMof tested compound |  | 
COc1ccc(C2CC(=O)c3c(O)cc(OCC(=O)NCc4ccccc4OC)cc3O2)cc1O (centres unmarked) [Compound 4i, 2-[5-Hydroxy-2-(3-hydroxy-4-methoxyphenyl)-4-oxochroman-7-yloxy]-N-(2-methoxy-benzyl)acetamide] | 97.8 ± 6.32% | 96.7 ± 5.21% | 75 ± 4.12% | 55 ± 5.69% | 0.0192 ± 0.00066 µM | 103 |  | 1.99 ± 0.134 µM | 2.7 μM of Trolox equivalent/μMof tested compound |  | 
COc1cccc(CNC(=O)COc2cc(O)c3c(c2)OC(c2ccc(OC)c(O)c2)CC3=O)c1 (centres unmarked) [Compound 4j, 2-[5-Hydroxy-2-(3-hydroxy-4-methoxyphenyl)-4-oxochroman-7-yloxy]-N-(3-methoxy-benzyl)acetamide] | 103 ± 6.47% | 98.2 ± 7.01% | 84.2 ± 3.2% | 70.8 ± 5.36% | 0.0223 ± 0.00154 µM | 110 |  | 2.46 ± 0.083 µM | 3.1 μM of Trolox equivalent/μMof tested compound |  | 
COc1ccc(C2CC(=O)c3c(O)cc(OCC(=O)NCCc4ccccc4)cc3O2)cc1O (centres unmarked) [Compound 4k, 2-[5-Hydroxy-2-(3-hydroxy-4-methoxyphenyl)-4-oxochroman-7-yloxy]-N-phenethyl-acetamide] | 98.9 ± 6.3% | 96.5 ± 2.98% | 81 ± 3.22% | 68.5 ± 4.92% | 0.0119 ± 0.00112 µM | 254 |  | 3.01 ± 0.074 µM | 2.7 μM of Trolox equivalent/μMof tested compound |  | 
COc1ccc(CCNC(=O)COc2cc(O)c3c(c2)OC(c2ccc(OC)c(O)c2)CC3=O)cc1 (centres unmarked) [Compound 4l, 2-[5-Hydroxy-2-(3-hydroxy-4-methoxyphenyl)-4-oxochroman-7-yloxy]-N-[2-(4-methoxy-phenyl)ethyl]acetamide] | 98.9 ± 4.07% | 94.5 ± 5.32% | 78.5 ± 3.21% | 63.2 ± 5.04% | 0.0195 ± 0.00077 µM | 143 |  | 2.79 ± 0.053 µM | 2.9 μM of Trolox equivalent/μMof tested compound |  | 
COc1ccc(C2CC(=O)c3c(O)cc(OCC(=O)NCCc4ccc(Cl)cc4)cc3O2)cc1O (centres unmarked) [Compound 4m, N-[2-(4-Chlorophenyl)ethyl]-2-[5-hydroxy-2-(3-hydroxy-4-methoxyphenyl)-4-oxo-chroman-7-yloxy]acetamide] | 102 ± 6.65% | 97.3 ± 5.21% | 81.5 ± 4.01% | 64.5 ± 4.32% | 0.0157 ± 0.00085 µM | 214 |  | 3.35 ± 0.066 µM | 2.6 μM of Trolox equivalent/μMof tested compound |  | 
COc1ccc(C2CC(=O)c3c(O)cc(OCC(=O)NCCc4ccc(Br)cc4)cc3O2)cc1O (centres unmarked) [Compound 4n, N-[2-(4-Bromophenyl)ethyl]-2-[5-hydroxy-2-(3-hydroxy-4-methoxyphenyl)-4-oxo-chroman-7-yloxy]acetamide] | 99.8 ± 3.89% | 96.5 ± 4.24% | 78.8 ± 5.21% | 55.6 ± 5.34% | 0.0172 ± 0.00096 µM | 115 |  | 1.99 ± 0.051 µM | 2.4 μM of Trolox equivalent/μMof tested compound |  | 
COc1ccc(C2CC(=O)c3c(O)cc(OCC(=O)NCCc4ccc(F)cc4)cc3O2)cc1O (centres unmarked) [Compound 4o, N-[2-(4-Fluorophenyl)ethyl]-2-[5-hydroxy-2-(3-hydroxy-4-methoxyphenyl)-4-oxochroman-7-yloxy]-acetamide] | 101 ± 6.31% | 97.2 ± 5.09% | 81.7 ± 3.52% | 59.7 ± 6.14% | 0.0135 ± 0.00144 µM | 167 |  | 2.26 ± 0.081 µM |  |  | 
COc1ccc(C2CC(=O)c3c(O)cc(OCC(=O)NCCc4ccccc4Cl)cc3O2)cc1O (centres unmarked) [Compound 4p, N-[2-(2-Chlorophenyl)ethyl]-2-[5-hydroxy-2-(3-hydroxy-4-methoxyphenyl)-4-oxo-chroman-7-yloxy]acetamide] | 99.3 ± 4.34% | 94.4 ± 3.9% | 83.1 ± 4.27% | 64.5 ± 4.82% | 0.0172 ± 0.00045 µM | 201 |  | 3.47 ± 0.067 µM | 2.7 μM of Trolox equivalent/μMof tested compound |  | 
COc1ccc(C2CC(=O)c3c(O)cc(OCC(=O)NCCc4ccccc4F)cc3O2)cc1O (centres unmarked) [Compound 4q, N-[2-(2-Fluorophenyl)ethyl]-2-[5-hydroxy-2-(3-hydroxy-4-methoxyphenyl)-4-oxochroman-7-yloxy]-acetamide] | 99 ± 5.28% | 92 ± 6.41% | 85.6 ± 3.95% | 66.5 ± 3.81% | 0.0202 ± 0.00188 µM | 111 |  | 2.24 ± 0.077 µM | 2.5 μM of Trolox equivalent/μMof tested compound |  | 
COc1ccc(C2CC(=O)c3c(O)cc(OCC(=O)NCCc4cccc(Cl)c4)cc3O2)cc1O (centres unmarked) [Compound 4r, N-[2-(3-Chlorophenyl)ethyl]-2-[5-hydroxy-2-(3-hydroxy-4-methoxyphenyl)-4-oxo-chroman-7-yloxy]acetamide] | 98.9 ± 5.2% | 95.8 ± 6.29% | 83.8 ± 4.24% | 62.2 ± 4.18% | 0.0161 ± 0.00079 µM | 188 |  | 3.03 ± 0.084 µM | 2.8 μM of Trolox equivalent/μMof tested compound |  | 
COc1cc(/C=C/C(=O)CC(=O)/C=C/c2ccc(O)c(OC)c2)ccc1O [Curcumin, curcumin, reference compound] | 95.3 ± 5.21% | 90.9 ± 4.31% | 82.1 ± 3.07% | 71.8 ± 4.21% |  |  |  |  |  |  | 
COc1ccc([C@@H]2CC(=O)c3c(O)cc(O)cc3O2)cc1O [Hesperetin, hesperetin] | 99 ± 5.87% | 93 ± 4.33% | 85.2 ± 3.43% | 67.3 ± 5.21% |  | 3 |  |  |  | 1.02 ± 0.037 µM | 2.9 ± 0.067 µM
Nc1c2c(nc3ccccc13)CCCC2 [Tacrine, tacrine, reference compound] |  |  |  |  |  |  |  |  | <0.1 μM of Trolox equivalent/μMof tested compound |  | 
